Structures are written as SMILES. “And” between values parts separate entries of the source, which are not always exact repeats. Equal entries are not always repeated.

The first series deals with T1, partially purified rat brain farnesyl protein transferase (FPT) (Rattus norvegicus, UniProt Q02293+Q04631).
T1 construct: partially purified rat brain farnesyl protein transferase (FPT); from tissue; host or cells: rat brain
Nature of the series: FPT IC50, in vitro enzyme assay (inhibition of Ras-CVLS farnesylation). Conditions: inhibition of Ras-CVLS farnesylation by partially purified rat brain FPT; value is a range stated for a group of compounds. The series is classed as biochemical. As for the experimental part: 1. In vitro enzyme assays: FPT IC50 (inhibition of farnesyl protein transferase, in vitro enzyme assay) are determined by the methods disclosed in WO/10515 or WO95/10516.
With `CC(=O)Nc1ccc(CN2CCN(C(=O)NC3CCCCC3)[C@@H](C(=O)NCCc3cncn3Cc3ccc(C#N)cc3)C2)cc1` [Example 20], the IC50 fell in the range of 0.18 to 21 nM.

On to `N#Cc1ccc(Cn2cncc2CCNC(=O)[C@H]2CN(Cc3ccccc3)CCN2C(=O)Cc2cc[n+]([O-])cc2)cc1` [Example 28P, N-[2-[1-[(4-cyanophenyl)methyl]-1H-imidazol-5-yl]ethyl]-4-(phenylmethyl)-1-(4-pyridinylacetyl)-2(R)-piperazinecarboxamide N1-oxide], for which the IC50 lay within 0.18 to 21 nM.

In turn, `N#Cc1ccc(Cn2cncc2CCNC(=O)[C@H]2CN(Cc3cccc(Cl)c3)CCN2C(=O)NC2CCCCC2)cc1` [Example 25] yielded an IC50 of 0.18 to 21 nM. As for `N#Cc1ccc(Cn2cncc2CCNC(=O)[C@H]2CN(Cc3nccs3)CCN2C(=O)NC2CCCCC2)cc1` [Example 8], the IC50 was 0.18 to 21 nM. Still for that read-out and setting: the figure for `N#Cc1ccc(Cn2cncc2CCNC(=O)[C@H]2CN(Cc3ccccc3)CCN2C(=O)CC2CCN(C(N)=O)CC2)cc1` [Example 28Q, 1-[[1-(aminocarbonyl)-4-piperidinyl]acetyl]-N-[2-[1-[(4-cyanophenyl)methyl]-1H-imidazol-5-yl]ethyl]-4-(phenylmethyl)-2(R)-piperazinecarboxamide] is 0.18 to 21 nM. As for `N#Cc1ccc(Cn2cncc2CCNC(=O)[C@H]2CN(Cc3ccc(C(F)(F)F)cc3)CCN2C(=O)NC2CCCCC2)cc1` [Example 15], the half-maximal inhibitory concentration (IC50) was in the range of 0.18 to 21 nM. Take `N#Cc1ccc(Cn2cncc2CCNC(=O)C2CN(CCc3cccc(Cl)c3)CCN2C(=O)NC2CCCCC2)cc1` (stereo not drawn) [Example 54]: the IC50 is 0.18 to 21 nM and 0.18 to 1.5 nM.

`O=C(NCCc1cncn1Cc1ccc(C(F)(F)F)cc1)C1CN(CCc2cccc(Cl)c2)CCN1C(=O)NC1CCCCC1` (stereo not drawn) [Example 53] yielded an IC50 of 0.18 to 21 nM. The same measure, in the same setting: the figure for `Cc1ccc(CN2CCN(C(=O)NC3CCCCC3)[C@@H](C(=O)NCCc3cncn3Cc3ccc(C#N)cc3)C2)cc1` [Example 22] is 0.18 to 21 nM; for `COc1ccc(CN2CCN(C(=O)NC3CCCCC3)[C@@H](C(=O)NCCc3cncn3Cc3ccc(C#N)cc3)C2)cc1` [Example 12] it is 0.18 to 21 nM. The molecule `CS(=O)(=O)N1CCN(CCc2ccccc2)CC1C(=O)NCCc1cncn1Cc1ccc(C#N)cc1` (stereo not drawn) [Example 31] came in with an IC50 of 0.18 to 21 nM. On the same count and under the same terms, the figure for `N#Cc1ccc(Cn2cncc2CCNC(=O)C2CN(CCc3ccccc3)CCN2C(=O)NC2CCCCC2)cc1` (stereo not drawn) [Example 29] is 0.18 to 21 nM. For `N#Cc1ccc(Cn2cncc2CCNC(=O)[C@H]2CN(Cc3ccc(Cl)cc3Cl)CCN2C(=O)NC2CCCCC2)cc1` [Example 24], the IC50 lay within 0.18 to 21 nM. Molecule `N#Cc1ccc(Cn2cncc2CCNC(=O)[C@H]2CN(Cc3cccc4ccccc34)CCN2C(=O)NC2CCCCC2)cc1` [Example 21] registered an IC50 of 0.18 to 21 nM. With `N#Cc1ccc(Cn2cncc2CCNC(=O)[C@H]2CN(Cc3ccccc3)CCN2S(=O)(=O)Cc2ccccc2)cc1` [Example 28M, N-[2-[1-[(4-cyanophenyl)methyl]-1H-imidazol-5-yl]ethyl]-1-[(phenylmethyl)sulfonyl]-4-(phenylmethyl)-2(R)-piperazinecarboxamide], the IC50 was 0.18 to 21 nM.

Regarding `CC(C)(C)NC(=O)N1CCN(Cc2ccccc2)C[C@@H]1C(=O)N(CCCn1ccnc1)Cc1ccccc1` [Example 28T, N1-(1,1-dimethylethyl)-N2-[3-(1H-imidazol-1-yl)propyl]-N2,4-bis(phenylmethyl)-1,2(R)-piperazinedicarboxamide], the IC50 lay within 0.18 to 21 nM. The same measure, in the same setting: the figure for `CCC(=O)N1CCN(Cc2ccccc2)C[C@@H]1C(=O)NCCc1cncn1Cc1ccc(C#N)cc1` [Example 28E, N-[2-[1-[(4-cyanophenyl)methyl]-1H-imidazol-5-yl]ethyl]-1-(1-oxopropyl)-4-phenyl(methyl)-2(R)-piperazinedicarboxamide] is 0.18 to 21 nM; for `N#Cc1ccc(Cn2cncc2CCNC(=O)[C@H]2CN(Cc3ccc(O)cc3)CCN2C(=O)NC2CCCCC2)cc1` [Example 23] it is 0.18 to 21 nM; for `CC(C)(C)CCN1CCN(C(=O)NC2CCCCC2)[C@@H](C(=O)NCCc2cncn2Cc2ccc(C#N)cc2)C1` [Example 9] it is 0.18 to 21 nM.

Molecule `Cn1cncc1CCNC(=O)C1CN(CCC2CCCCC2)CCN1C(=O)NC1CCCCC1` (stereo not drawn) [Example 61] had an IC50 of 0.18 to 21 nM. Still for that read-out and setting: the figure for `COc1cccc(CN2CCN(C(=O)NC3CCCCC3)[C@@H](C(=O)NCCc3cncn3Cc3ccc(C#N)cc3)C2)c1` [Example 26] is 0.18 to 21 nM; for `N#Cc1ccc(Cn2cncc2CCNC(=O)[C@H]2CN(Cc3ccccc3C#N)CCN2C(=O)NC2CCCCC2)cc1` [Example 11] it is 0.18 to 21 nM; for `N#Cc1ccc(Cn2cncc2CCNC(=O)[C@H]2CN(CC3CCCCC3)CCN2C(=O)NC2CCCCC2)cc1` [Example 13] it is 0.18 to 21 nM. Molecule `CCCC(=O)N1CCN(Cc2ccccc2)C[C@@H]1C(=O)NCCc1cncn1Cc1ccc(C#N)cc1` [Example 28F, N-[2-[1-[(4-cyanophenyl)methyl]-1H-imidazol-5-yl]ethyl]-1-(1-oxobutyl)-4-phenyl(methyl)-2(R)-piperazinedicarboxamide] gave an IC50 of 0.18 to 21 nM.

The molecule `N#Cc1ccc(Cn2cncc2CCNC(=O)[C@H]2CN(Cc3ccc(F)cc3)CCN2C(=O)NC2CCCCC2)cc1` [Example 14] showed a concentration for half-maximal inhibition (IC50) of 0.18 to 21 nM. Same read-out and setting: the figure for `N#Cc1ccc(Cn2cncc2CCNC(=O)C2CN(C(=O)c3ccncc3)CCN2C(=O)NC2CCCCC2)cc1` (stereo not drawn) [Example 42] is 0.18 to 21 nM; for `Cc1ccc(CCN2CCN(C(=O)NC3CCCCC3)C(C(=O)NCCc3cncn3Cc3ccc(C#N)cc3)C2)cc1O` (stereo not drawn) [Example 55] it is 0.18 to 21 nM and 0.18 to 1.5 nM. On to `N#Cc1ccc(Cn2cncc2CCNC(=O)[C@H]2CN(Cc3ccccc3)CCN2C(=O)Cc2ccccc2)cc1` [Example 28I, N-[2-[1-[(4-cyanophenyl)methyl]-1H-imidazol-5-yl]ethyl]-1-phenylacetyl-4-(phenylmethyl)-2(R)-piperazinedicarboxamide], for which the IC50 lay in the range of 0.18 to 21 nM.

For the molecule `O=C(NCCc1cncn1Cc1ccccc1)[C@H]1CN(CCC2CCCCC2)CCN1C(=O)NC1CCCCC1` [Example 64], the IC50 is 0.18 to 21 nM. Still for that read-out and setting: the figure for `O=C([C@H]1CN(Cc2ccccc2)CCN1C(=O)NC1CCCCC1)N(CCCn1ccnc1)Cc1ccccc1` [Example 28S, N1-cyclohexyl-N2-[3-(1H-imidazol-1-yl)propyl]-N2,4-bis(phenylmethyl)-1,2(R)-piperazinedicarboxamide] is 0.18 to 21 nM. Still for that read-out and setting: to `CCCCNC(=O)N1CCN(C(=O)NC2CCCCC2)C(C(=O)NCCc2cncn2Cc2ccc(C#N)cc2)C1` (stereo not drawn) [Example 47] belongs 0.18 to 21 nM; to `O=C(NCCc1cncn1Cc1ccc(Cl)c(Cl)c1)C1CN(CCC2CCCCC2)CCN1C(=O)NC1CCCCC1` (stereo not drawn) [Example 36], 0.18 to 21 nM.

`COc1cccc(CN2CCN(C(=O)NC3CCCCC3)C(C(=O)NCCc3cncn3Cc3ccc(Cl)c(Cl)c3)C2)c1` (stereo not drawn) [Example 58] displayed an IC50 of 0.18 to 21 nM. `CCCCCN1CCN(S(C)(=O)=O)C(C(=O)NCCc2cncn2Cc2ccc(C#N)cc2)C1` (stereo not drawn) [Example 34] returned an IC50 of 0.18 to 21 nM.

For `N#Cc1ccc(CN2CCN(C(=O)NC3CCCCC3)[C@@H](C(=O)NCCc3cncn3Cc3ccc(C#N)cc3)C2)cc1` [Example 10], the IC50 lay in the range of 0.18 to 21 nM.

Consider `N#Cc1ccc(Cn2cncc2CCNC(=O)[C@H]2CN(Cc3ccc(Br)cc3)CCN2C(=O)NC2CCCCC2)cc1` [Example 17], for which the IC50 lay within 0.18 to 21 nM. The same measure, in the same setting: to `COc1ccccc1CN1CCN(C(=O)NC2CCCCC2)[C@@H](C(=O)NCCc2cncn2Cc2ccc(C#N)cc2)C1` [Example 27] belongs 0.18 to 21 nM; to `N#Cc1ccc(Cn2cncc2CCNC(=O)[C@H]2CN(S(=O)(=O)c3ccccc3)CCN2C(=O)NC2CCCCC2)cc1` [Example 28R, N2-[2-[1-[(4-Cyanophenyl)methyl]-1H-imidazol-5-yl]ethyl]-N1-cyclohexyl-4-(phenylsulfonyl)-1,2(R)-piperazinedicarboxamide], 0.18 to 21 nM. In turn, `N#Cc1ccc(Cn2cncc2CCNC(=O)[C@H]2CN(Cc3ccccc3Cl)CCN2C(=O)NC2CCCCC2)cc1` [Example 28] had an IC50 of 0.18 to 21 nM. As for `N#Cc1ccc(Cn2cncc2CCNC(=O)C2CN(CCC3CCCCC3)CCN2C(=O)NC2CCCCC2)cc1` (stereo not drawn) [Example 32], the IC50 was 0.18 to 21 nM. `CC(C)(C)CCN1CCN(C(=O)NC2CCCCC2)C(C(=O)NCCc2cncn2Cc2ccc(Cl)c(Cl)c2)C1` (stereo not drawn) [Example 56] showed an IC50 of 0.18 to 21 nM. The same measure, in the same setting: the figure for `N#Cc1ccc(Cn2cncc2CCNC(=O)[C@H]2CN(Cc3ccc(Cl)cc3)CCN2C(=O)NC2CCCCC2)cc1` [Example 16] is 0.18 to 21 nM.

Test system in another series: not given
Experiment: not given
Conditions: not given
The molecule `CC(C)(C)OC(=O)N1CCN(C(=O)OCc2ccccc2)[C@@H](C(=O)NCCCn2ccnc2C(N)=O)C1` [Example 28Z] displayed a melting point of 71 to 75 °C. In the case of `N#Cc1ccc(Cn2cncc2CCNC(=O)[C@H]2CN(Cc3ccccc3)CCN2C(=O)CC2CCN(C(N)=O)CC2)cc1` [Example 28Q, 1-[[1-(aminocarbonyl)-4-piperidinyl]acetyl]-N-[2-[1-[(4-cyanophenyl)methyl]-1H-imidazol-5-yl]ethyl]-4-(phenylmethyl)-2(R)-piperazinecarboxamide], the melting point worked out at 118.5 °C.

For `CC(C)(C)NC(=O)N1CCN(Cc2ccccc2)C[C@@H]1C(=O)N(CCCn1ccnc1)Cc1ccccc1` [Example 28T, N1-(1,1-dimethylethyl)-N2-[3-(1H-imidazol-1-yl)propyl]-N2,4-bis(phenylmethyl)-1,2(R)-piperazinedicarboxamide], the melting point was 57.8 °C.

For `CC(C)(C)OC(=O)N1CCN(C(=O)NC2CCCCC2)[C@@H](C(=O)NCCc2cncn2Cc2ccc(F)cc2)C1` [Example 2], the melting point was 72 °C (dec.). Same read-out and setting: to `CCS(=O)(=O)N1CCN(Cc2ccccc2)C[C@@H]1C(=O)NCCc1cncn1Cc1ccc(C#N)cc1` [Example 28K, N-[2-[1-[(4-cyanophenyl)methyl]-1H-imidazol-5-yl]ethyl]-1-(ethylsulfonyl)-4-(phenylmethyl)-2(R)-piperazinecarboxamide] belongs 97.3 to 150.2 °C.

`N#Cc1ccc(Cn2cncc2CCNC(=O)[C@H]2CN(Cc3ccccc3)CCN2C(=O)Cc2ccccc2)cc1` [Example 28I, N-[2-[1-[(4-cyanophenyl)methyl]-1H-imidazol-5-yl]ethyl]-1-phenylacetyl-4-(phenylmethyl)-2(R)-piperazinedicarboxamide]: the melting point lay in the range of 85.6 to 96.7 °C. `O=C([C@H]1CN(Cc2ccccc2)CCN1C(=O)NC1CCCCC1)N(CCCn1ccnc1)Cc1ccccc1` [Example 28S, N1-cyclohexyl-N2-[3-(1H-imidazol-1-yl)propyl]-N2,4-bis(phenylmethyl)-1,2(R)-piperazinedicarboxamide] registered a melting point of 89.1 °C.

As to `O=C(NCCc1cncn1CCc1ccccc1)[C@H]1CN(Cc2ccccc2)CCN1C(=O)NC1CCCCC1` [Example 28D, N4-phenylmethyl-N2-[2-[1-(phenylethyl)-1H-imidazol-5-yl]ethyl]-N1-cyclohexyl-1,2(R)-piperazinedicarboxamide], the melting point turned out to be 64.4 °C. Take `N#Cc1ccc(Cn2cncc2CCNC(=O)[C@H]2CN(S(=O)(=O)c3ccccc3)CCN2C(=O)NC2CCCCC2)cc1` [Example 28R, N2-[2-[1-[(4-Cyanophenyl)methyl]-1H-imidazol-5-yl]ethyl]-N1-cyclohexyl-4-(phenylsulfonyl)-1,2(R)-piperazinedicarboxamide]: the melting point was found to be 143.6 °C.
